Assay [1] is described as follows: Antioxidant activity against Fe2+-induced lipid peroxidation at 20 uM by fluorescence spectroscopy. Type of assay: functional.
A short description of assay [2]: Antioxidant activity against Fe2+-induced lipid peroxidation at 100 uM by fluorescence spectroscopy. Type of assay: functional.

Active and inactive are the calls of the source. No cut-off for these calls is given here. Some results are limits rather than exact numbers.

In the case of `O=C(/C=C/c1ccc(O)c(O)c1)OC1[C@H](O)CC[C@@H]1O` (stereo partly specified), the Activity in assay [1] came out at 80%.
In turn, `COC(=O)[C@]1(O)C[C@@H](O)[C@@H](O)[C@H](OC(=O)/C=C/c2ccc(O)c(O)c2)C1` registered an Activity in assay [1] of 50%.
Still for that read-out and setting: the figure for `O=C(/C=C/c1ccc(O)c(O)c1)O[C@@H]1CC[C@@H](O)[C@H]1O` is 80%; for `CC(C)(C)c1cc(O)ccc1O` it is more than 90%.
Consider `O=C(O)C(O)Cc1ccccc1O` (racemic), for which the outcome in assay [2] was inactive.
Take `Cc1cc(C(C)(C)C)c(O)c(C(C)(C)C)c1`: the Activity in assay [1] is more than 90%.
